Like-named read-outs stand apart in the source and are kept apart here.
Tests used:
[1] = molecular target: Beta Secretase enzyme (BACE) (Homo sapiens, UniProt P56817); assay: In vitro enzymatic BACE FRET (fluorescence resonance energy transfer) assay; assay type: biochemical
Summary of the method: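 Acetate buffer (0.05 M, pH 4.2), 10% DMSO final, 100 uM nonionic detergent genapol. Substrate addition (50 nM FRET peptide) initiates; one-hour incubation; Tris raises pH to neutrality before fluorescence measurement.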

[2] = system: Aβ40 in conditioned medium of cells stably expressing Amyloid Precursor Protein (APP); assay: In vitro BACE cell-based assay (Aβ40 in conditioned medium, sandwich ELISA); settings: Homo sapiens
Summary of the method: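 Step two: 10-point compound titration added, starting 100 μM or 10 μM, 0.1% DMSO. Step three: medium Aβ40 measured by ELISA, capture 3 h and detection 2 h at 4° C, TRF read.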

[3] = average IC50, enzyme assay, read-out: BACE 1 FRET assay
[4] = HEK293, average IC50, HEK cells, read-out: HEK cell assay
[5] = HEK293, average IC50, read-out: HEK cell assay

Sequence of Beta Secretase enzyme (BACE) (P56817 46-501, species assumed): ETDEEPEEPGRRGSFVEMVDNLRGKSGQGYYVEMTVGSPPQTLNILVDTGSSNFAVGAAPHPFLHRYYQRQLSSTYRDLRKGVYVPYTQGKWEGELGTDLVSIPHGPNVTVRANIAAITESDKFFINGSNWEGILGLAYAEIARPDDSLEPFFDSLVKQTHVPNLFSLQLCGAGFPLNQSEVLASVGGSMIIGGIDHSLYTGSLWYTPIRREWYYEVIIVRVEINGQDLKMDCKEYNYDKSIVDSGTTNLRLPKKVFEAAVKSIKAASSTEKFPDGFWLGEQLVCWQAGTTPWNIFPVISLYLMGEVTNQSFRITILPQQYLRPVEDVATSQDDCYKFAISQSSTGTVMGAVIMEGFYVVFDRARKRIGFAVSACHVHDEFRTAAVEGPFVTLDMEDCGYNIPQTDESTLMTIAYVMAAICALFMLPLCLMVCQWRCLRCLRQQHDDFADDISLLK

| SMILES | IC50 [1, 3] [µM] | IC50 [2, 4] [µM] | IC50 [2, 5] [µM] | IC50 ([1]; BACE 1 FRET assay (uM)) [µM] | IC50 ([2]; HEK293, read-out: HEK cell assay (uM), average IC50, HEK cell assay) [µM] |
| --- | --- | --- | --- | --- | --- |
| NC1=N[C@@]2(CO1)c1cc(-c3cccnc3)ccc1Oc1c2cc(C2=CCOCC2)nc1F [Example 639, (5S)-3-(3,6-dihydro-2H-pyran-4-yl)-1-fluoro-7-(3-pyridinyl)spiro[chromeno[2,3-c]pyridine-5,4′-[1,3]oxazol]-2′-amine] | 0.0004 | 0.003 |  |  |  |
| COc1ncc(-c2ccc3c(c2)[C@@]2(COC(N)=N2)c2cc(N4CCC(F)(F)C4)ncc2O3)cn1 [Example 415, (5S)-3-(3,3-difluoro-1-pyrrolidinyl)-7-(2-methoxy-5-pyrimidinyl)spiro[chromeno[2,3-c]pyridine-5,4′-[1,3]oxazol]-2′-amine] | 0.0817 | 0.367 |  |  |  |
| NC1=N[C@@]2(CS1)c1cc(-c3cccnc3F)ccc1Oc1c(F)cc(N3CC[C@@H](F)C3)cc12 [Example 1075, (4S)-4′-fluoro-7′-(2-fluoro-3-pyridinyl)-2′-((3R)-3-fluoro-1-pyrrolidinyl)spiro[1,3-thiazole-4,9′-xanthen]-2-amine] | 0.0015 |  | 0.015 |  |  |
| NC1=N[C@@]2(CO1)c1cc(OCc3ccccc3Br)ccc1Oc1ncc(-c3cccnc3)cc12 [Example 978, (5S)-7-((2-bromobenzyl)oxy)-3-(3-pyridinyl)spiro[chromeno[2,3-b]pyridine-5,4′-[1,3]oxazol]-2′-amine] | 0.0507 |  | 0.334 |  |  |
| Cn1cc(-c2cc3c(cn2)Oc2ccc(-c4ccc(F)nc4)cc2[C@@]32COC(N)=N2)cn1 [Example 365, (5S)-7-(6-fluoro-3-pyridinyl)-3-(1-methyl-1H-pyrazol-4-yl)spiro[chromeno[2,3-c]pyridine-5,4′-[1,3]oxazol]-2′-amine] | 0.0108 |  | 0.0424 |  |  |
| CC1(C#Cc2cc(F)c3c(c2)C2(COC(N)=N2)c2cc(-c4cccnc4F)ncc2O3)COC1 (centres unmarked) [Example 662, 9-fluoro-3-(2-fluoro-3-pyridinyl)-7-((3-methyl-3-oxetanyl)ethynyl)spiro[chromeno[2,3-c]pyridine-5,4′-[1,3]oxazol]-2′-amine] | 0.0033 | 0.129 |  |  |  |
| COc1nc(Cl)cc2c1Oc1ccc(-c3cccnc3F)cc1[C@@]21COC(N)=N1 [Example 828, (5S)-3-chloro-7-(2-fluoro-3-pyridinyl)-1-methoxyspiro[chromeno[2,3-c]pyridine-5,4′-[1,3]oxazol]-2′-amine] | 0.134 |  | ≥ 10 |  |  |
| NC1=N[C@@]2(CO1)c1cc(-c3cccc(Cl)c3F)ccc1Oc1ncc(C3=CCOCC3)cc12 [Example 170, (5S)-7-(3-chloro-2-fluorophenyl)-3-(3,6-dihydro-2H-pyran-4-yl)spiro[chromeno[2,3-b]pyridine-5,4′-[1,3]oxazol]-2′-amine] | 0.0015 |  | 0.0183 |  |  |
| Cc1nn(C)cc1-c1cccc(-c2ccc3c(c2)[C@@]2(COC(N)=N2)c2cc(C4=CCOCC4)ncc2O3)c1 [Example 255, (5S)-3-(3,6-dihydro-2H-pyran-4-yl)-7-(3-(1,3-dimethyl-1H-pyrazol-4-yl)phenyl)spiro[chromeno[2,3-c]pyridine-5,4′-[1,3]oxazol]-2′-amine] | 0.0223 |  | 0.565 |  |  |
| CC1(C#Cc2cnc3c(c2)[C@]2(COC(N)=N2)c2cc(-c4cnccn4)ccc2O3)COC1 [Example 168, (5S)-3-((3-methyl-3-oxetanyl)ethynyl)-7-(2-pyrazinyl)spiro[chromeno[2,3-b]pyridine-5,4′-[1,3]oxazol]-2′-amine] | 0.0033 |  | 0.0145 |  |  |
| Cc1cccc(Oc2ccc3c(c2)[C@@]2(COC(N)=N2)c2cc(N4CCOCC4)cc(F)c2O3)n1 [Example 1057, (4S)-4′-fluoro-7′-((6-methyl-2-pyridinyl)oxy)-2′-(4-morpholinyl)spiro[1,3-oxazole-4,9′-xanthen]-2-amine] | 0.0732 |  | 0.687 |  |  |
| NC1=N[C@]2(CO1)c1cc(-c3cccnc3)ccc1Oc1c2cc(-c2ccnc(F)c2)c(F)c1F [Example 1012, (4R)-3′,4′-difluoro-2′-(2-fluoro-4-pyridinyl)-7′-(3-pyridinyl)spiro[1,3-oxazole-4,9′-xanthen]-2-amine] | 0.0597 |  | 1.85 |  |  |
| COc1ccc2c(c1)[C@@]1(COC(N)=N1)c1cc(C3(O)COC3)cc(F)c1O2 [Example 708, (S)-3-(2-amino-5′-fluoro-2′-methoxy-5H-spiro[oxazole-4,9′-xanthene]-7′-yl)oxetan-3-ol] | 13.3 | ≥ 10 |  |  |  |
| NC1=N[C@@]2(CO1)c1cc(-c3cccnc3)ccc1Oc1c2cc(-c2cccnc2)[nH]c1=O [Example 107, (S)-2′-amino-3,7-di(pyridin-3-yl)-5′H-spiro[chromeno[2,3-c]pyridine-5,4′-oxazol]-1(2H)-one] | 0.0077 | 0.18 |  |  |  |
| CC#Cc1cnc(F)c(-c2ccc3c(c2)[C@@]2(COC(N)=N2)c2cc(-c4ccnc(F)c4)cnc2O3)c1 [Example 956, (5S)-7-(2-fluoro-5-(1-propyn-1-yl)-3-pyridinyl)-3-(2-fluoro-4-pyridinyl)spiro[chromeno[2,3-b]pyridine-5,4′-[1,3]oxazol]-2′-amine] | 0.0004 | 0.006 |  |  |  |
| CC(C)(C)C#Cc1cc2c(nc1F)Oc1ccc(-c3cccnc3F)cc1[C@@]21COC(N)=N1 [Example 685, (5S)-3-(3,3-dimethyl-1-butyn-1-yl)-2-fluoro-7-(2-fluoro-3-pyridinyl)spiro[chromeno[2,3-b]pyridine-5,4′-[1,3]oxazol]-2′-amine] | 0.0004 | 0.011 |  |  |  |
| CC1(COc2cnc3c(c2)C2(COC(N)=N2)c2cc(-c4cc(Cl)ccc4F)ccc2O3)OCCO1 (centres unmarked) [Example 87, 7-(5-chloro-2-fluorophenyl)-3-((2-methyl-1,3-dioxolan-2-yl)methoxy)-5′H-spiro[chromeno[2,3-b]pyridine-5,4′-oxazol]-2′-amine] | 0.0084 |  | 0.106 |  |  |
| CC1(C#Cc2cc3c(cc2F)Oc2ccc(-c4cccnc4F)cc2[C@@]32COC(N)=N2)COC1 [Example 312, (4S)-3′-fluoro-7′-(2-fluoro-3-pyridinyl)-2′-((3-methyl-3-oxetanyl)ethynyl)spiro[1,3-oxazole-4,9′-xanthen]-2-amine] | 0.0025 |  | 0.0303 |  |  |
| NC1=N[C@@]2(CS1)c1cc(-c3cccnc3F)ccc1Oc1c(F)cc(C3=CCOCC3)cc12 [Example 791, (4S)-2′-(3,6-dihydro-2H-pyran-4-yl)-4′-fluoro-7′-(2-fluoro-3-pyridinyl)spiro[1,3-thiazole-4,9′-xanthen]-2-amine] | 0.0001 |  | 0.01 |  |  |
| NC1=N[C@@]2(CO1)c1cc(-c3cncc(Cl)c3)ccc1Oc1c(F)cc(C3=CCOCC3)cc12 [Example 210, (4S)-7′-(5-chloro-3-pyridinyl)-2′-(3,6-dihydro-2H-pyran-4-yl)-4′-fluorospiro[1,3-oxazole-4,9′-xanthen]-2-amine] |  |  |  | 0.0003 | 0.003 |
| CC1(COc2cc(F)c3c(c2)[C@@]2(CSC(N)=N2)c2cc(-c4cccnc4F)c(F)cc2O3)COC1 [Example 886, (4R)-3′,5′-difluoro-2′-(2-fluoro-3-pyridinyl)-7′-((3-methyl-3-oxetanyl)methoxy)spiro[1,3-thiazole-4,9′-xanthen]-2-amine] | 0.475 | ≥ 10 |  |  |  |
| CC1(C)CC(c2cc3c(cn2)Oc2ccc(-c4cncc(F)c4)cc2[C@@]32COC(N)=N2)=CCO1 [Example 371, (5S)-3-(2,2-dimethyl-3,6-dihydro-2H-pyran-4-yl)-7-(5-fluoro-3-pyridinyl)spiro[chromeno[2,3-c]pyridine-5,4′-[1,3]oxazol]-2′-amine] | 0.002 |  | 0.0107 |  |  |
| CC1(COc2cc(F)c3c(c2)[C@]2(COC(N)=N2)c2cc(-c4cncc(F)c4)ccc2O3)COC1 [Example 273, (4S)-4′-fluoro-7′-(5-fluoro-3-pyridinyl)-2′-((3-methyl-3-oxetanyl)methoxy)spiro[1,3-oxazole-4,9′-xanthen]-2-amine] | 0.0007 |  | 0.0031 |  |  |
| NC1=N[C@@]2(CO1)c1cc(-c3cccnc3F)ccc1Oc1ncc(C#CC3(O)COC3)cc12 [Example 519, 3-(((5S)-2′-amino-7-(2-fluoro-3-pyridinyl)spiro[chromeno[2,3-b]pyridine-5,4′-[1,3]oxazol]-3-yl)ethynyl)-3-oxetanol] | 0.0032 | 0.0297 |  |  |  |
| Cc1cc(-c2cc(F)c3c(c2)[C@]2(CSC(N)=N2)c2cc(-c4cccnc4F)ccc2O3)ccn1 [Example 1072, (4S)-4′-fluoro-7′-(2-fluoro-3-pyridinyl)-2′-(2-methyl-4-pyridinyl)spiro[1,3-thiazole-4,9′-xanthen]-2-amine] | 0.0033 |  | 0.029 |  |  |
| CC1(C#Cc2ccc3c(c2)[C@@]2(COC(N)=N2)c2cc(N4CCC(F)(F)C4)ncc2O3)COC1 [Example 163, (5S)-3-(3,3-difluoro-1-pyrrolidinyl)-7-((3-methyl-3-oxetanyl)ethynyl)spiro[chromeno[2,3-c]pyridine-5,4′-[1,3]oxazol]-2′-amine] | 0.0174 |  | 0.124 |  |  |
| CC1(C#Cc2cnc3c(c2)[C@]2(COC(N)=N2)c2cc(O)ccc2O3)COC1 [Example 690, (5S)-2′-amino-3-((3-methyl-3-oxetanyl)ethynyl)spiro[chromeno[2,3-b]pyridine-5,4′-[1,3]oxazol]-7-ol] | 0.346 | 2.15 |  |  |  |
| NC1=N[C@@]2(CO1)c1cc(-c3cc(Cl)cnc3F)ccc1Oc1ncc(C3=CCOCC3)cc12 [Example 454, (5S)-7-(5-chloro-2-fluoro-3-pyridinyl)-3-(3,6-dihydro-2H-pyran-4-yl)spiro[chromeno[2,3-b]pyridine-5,4′-[1,3]oxazol]-2′-amine] | 0.0009 | 0.0032 |  |  |  |
